# Values quoted from earlier work, collected in patent US6826488B1, “Crystals, molecular complexes, and methods of developing lead compounds for inhibitors of bacterial IMPDH” (The University of Chicago, priority 2000, dated 2004).
# Legend:
# bacterial IMPDH enzymes = settings: bacterial enzymes inhibited by MPA only at very high concentrations
# mammalian IMPDH enzymes = settings: mammalian relative to bacterial IMPDH enzymes
smiles,measurement,setting,value
"COc1c(C)c2c(c(O)c1C/C=C(\C)CCC(=O)O)C(=O)OC2 [MPA, Mycophenolic acid]",Ki,bacterial IMPDH enzymes,> 500 µM
same,times more sensitive to inhibition (mammalian vs bacterial IMPDH enzymes),mammalian IMPDH enzymes,10-100 times
